What was measured:
[1] = biological target: AAK1 (amino acids T27-A365) (Homo sapiens (Human), UniProt Q2M2I8); assay: AAK1 pSENs assay; assay type: biochemical; details: ratio of AAK1 pSENs activity to GAK pSENs activity
Description: (§1) The recombinant proteins were independently expressed in Esherichia coli BL21(DE3) cells cultured in Luria-Bertani (LB) medium until OD600 reached 0.6-0.8, then cooled to 15° C., and supplemented with 0.5 mM isopropyl 1-thio-D-galactopyranoside (IPTG) induce protein expression 16 h. Cells were harvested and resuspended in lysis buffer (50 mM HEPES pH 7.5, 500 mM NaCl, 5 mM imidazole, 5% glycerol, 0.5 mM Tris (2-carboxyethyl) phosphine (TCEP), cOmplete Protease Inhibitor Tablet (Roche)) and lysed by microfluidics high pressure homogenizer (UH-06, Union-Biotech). Proteins were purified using Ni-Affinity chromatography (His FF column, Bestchrom) and eluted stepwise in binding buffer with 20-300 mM imidazole. Removal of the hexahistidine tag was performed at 4° C. overnight using recombinant TEV protease and reacted with BirA to obtain the corresponding biotinylated-AAK1. BIKE or GAK proteins. Further separated in the reverse Strep column (Strep-Tactin® XT, IBA). The Biotin elution sample was collected containing untagged biotinylated protein was then purified by Ion-exchange chromatography (Mono Q 10/100 GL, Cytiva) and Size-exclusion chromatography (HiLoad 16/600 Superdex 200 pg, Cytiva). The pure protein was stored in a storage buffer 50 mM HEPES (pH 7.5), 300 mM NaCl, 5% glycerol at −80° C. Protein were characterized by SDS-PAGE. LC-MS and aSEC.
This example describes one illustrative method for determining the IC50 of the compounds of the present invention against AAK1 (amino acids T27-A365). AAK1 protein was dissolved at 20 nM in 1× enzyme solution (50 mM HEPES pH7.5, 10 mM MgCl2, 1 mM DTT, 1% glycerol, 0.5 mM EGTA, 0.01% Briji35, 0.02% BSA) and 12.5 ul was incubated with 250 nl DMSO or 250 nl compound in DMSO at 25° C. for 15 min. The reaction was started by addition of 12.5 ul of 30 uM AQT0759 (Assayquant, CSKS-AQT0759B) and 70 uM ATP which were diluted in 1× substrate dilution buffer (50 mM HEPES pH7.5, 10 mM MgCl2, 1 mM DTT, 1% glycerol, 0.5 mM EGTA, 0.01% Briji35).

[2] = biological target: GAK (amino acids Q25-N335) (Homo sapiens (Human), UniProt O14976); assay: GAK pSENs assay; assay type: biochemical
Chain of GAK (amino acids Q25-N335) (O14976 25-335): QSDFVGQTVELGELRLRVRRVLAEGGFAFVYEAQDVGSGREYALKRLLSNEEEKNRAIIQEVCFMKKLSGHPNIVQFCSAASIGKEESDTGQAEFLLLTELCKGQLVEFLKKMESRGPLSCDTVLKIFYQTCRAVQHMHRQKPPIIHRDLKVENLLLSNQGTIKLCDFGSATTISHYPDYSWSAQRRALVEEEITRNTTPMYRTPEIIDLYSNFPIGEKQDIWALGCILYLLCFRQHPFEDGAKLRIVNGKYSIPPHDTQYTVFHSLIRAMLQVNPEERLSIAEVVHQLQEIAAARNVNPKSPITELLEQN
Description: as §1
This example describes one illustrative method for determining the IC50 of the compounds of the present invention against GAK (amino acids Q25-N335).

Chain of AAK1 (amino acids T27-A365) (Q2M2I8 27-365): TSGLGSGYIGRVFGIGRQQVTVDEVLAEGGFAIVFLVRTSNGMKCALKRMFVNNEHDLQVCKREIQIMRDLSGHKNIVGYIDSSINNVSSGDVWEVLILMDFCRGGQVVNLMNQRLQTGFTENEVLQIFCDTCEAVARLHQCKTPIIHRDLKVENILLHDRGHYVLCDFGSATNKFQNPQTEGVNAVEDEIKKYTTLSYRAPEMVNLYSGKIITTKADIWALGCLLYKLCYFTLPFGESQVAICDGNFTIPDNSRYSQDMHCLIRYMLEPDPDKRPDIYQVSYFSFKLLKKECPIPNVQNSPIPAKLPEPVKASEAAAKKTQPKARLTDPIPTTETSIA

For `O=C1C[C@H](OC(=O)N2CCN(c3ccn4ncc(-c5cccnc5OC5CC5)c4n3)CC2)CN1CCO` [Compound I-38, [(3S)-1-(2-Hydroxyethyl)-5-oxo-pyrrolidin-3-yl]-4-[3-[2-(cyclopropoxy)-3-pyridyl]pyrazolo[1,5-a]pyrimidin-5-yl]piperazine-1-carboxylate], the “AAK1:GAK pSENs Selectivity” value [1] was “A (A: ≤0.015)” and the IC50 [2] was greater than 1500 nM.

`C[C@@H]1CN(c2ccn3ncc(-c4cccnc4OC4CC4)c3n2)CCN1C(=O)O[C@@H]1CNC(=O)C1` [Compound I-39, [(3S)-5-oxopyrrolidin-3-yl]-(2R)-4-[3-[2-(cyclopropoxy)-3-pyridyl]pyrazolo[1,5-a]pyrimidin-5-yl]-2-methyl-piperazine-1-carboxylate] was tested, and the “AAK1:GAK pSENs Selectivity” value [1] was “A (A: ≤0.015)” and the IC50 [2] was greater than 1500 nM.

For `CC(C)(C)OC(=O)N1CC(Oc2ncccc2-c2cnn3ccc(N4CCN(C(=O)O[C@@H]5CNC(=O)C5)CC4)nc23)C1` [Compound I-42, [(3S)-5-Oxopyrrolidin-3-yl]4-[3-[2-(1-tert-butoxycarbonylazetidin-3-yl)oxy-3-pyridyl]pyrazolo[1,5-a]pyrimidin-5-yl]piperazine-1-carboxylate], the “AAK1:GAK pSENs Selectivity” value [1] was “A (A: ≤0.015)” and the IC50 [2] was greater than 1500 nM.

`CN1CC[C@@](C)(OC(=O)N2CCN(c3ccn4ncc(-c5cccnc5OC5CC5)c4n3)CC2)C1` [Compound I-50, [(3R)-1,3-dimethylpyrrolidin-3-yl]-4-[3-[2-(cyclopropoxy)-3-pyridyl]pyrazolo[1,5-a]pyrimidin-5-yl]piperazine-1-carboxylate] was tested, and the “AAK1:GAK pSENs Selectivity” value [1] was “A (A: ≤0.015)” and the IC50 [2] was greater than 1500 nM.

`C[C@@]1(OC(=O)N2CCN(c3ccn4ncc(-c5cccnc5OC5CC5)c4n3)CC2)CCN(CCO)C1` [Compound I-52, [(3R)-1-(2-hydroxyethyl)-3-methyl-pyrrolidin-3-yl]-4-[3-[2-(cyclopropoxy)-3-pyridyl]pyrazolo[1,5-a]pyrimidin-5-yl]piperazine-1-carboxylate] was tested, and the “AAK1:GAK pSENs Selectivity” value [1] was “A (A: ≤0.015)” and the IC50 [2] was greater than 1500 nM.

In the case of `COC(=O)N1CC(Oc2ncccc2-c2cnn3ccc(N4CCN(C(=O)O[C@@H]5CNC(=O)C5)CC4)nc23)C1` [Compound I-58, [(3S)-5-oxopyrrolidin-3-yl]-4-[3-[2-(1-methoxycarbonylazetidin-3-yl)oxy-3-pyridyl]pyrazolo[1,5-a]pyrimidin-5-yl]piperazine-1-carboxylate], the “AAK1:GAK pSENs Selectivity” value [1] is reported as “A (A: ≤0.015)” and the IC50 [2] is reported as greater than 1500 nM.

In the case of `CC(=O)N1CC(Oc2ncccc2-c2cnn3ccc(N4CCN(C(=O)O[C@@H]5CNC(=O)C5)CC4)nc23)C1` [Compound I-59, (S)-5-oxopyrrolidin-3-yl 4-(3-(2-((1-acetylazetidin-3-yl)oxy)pyridin-3-yl)pyrazolo[1,5-a]pyrimidin-5-yl)piperazine-1-carboxylate], the “AAK1:GAK pSENs Selectivity” value [1] is reported as “A (A: ≤0.015)” and the IC50 [2] is reported as greater than 1500 nM.

In the case of `CN(CCNc1ccn2ncc(-c3cccnc3OC3CC3)c2n1)C(=O)O[C@@H]1CNC(=O)C1` [Compound I-60], the “AAK1:GAK pSENs Selectivity” value [1] is reported as “C (C: 0.076-0.15)” and the IC50 [2] is reported as greater than 1500 nM.

With `CN(CCNc1ccn2ncc(-c3cccnc3OC3CN(C(=O)OC(C)(C)C)C3)c2n1)C(=O)OC(C)(C)C` [Compound I-62, Tert-butyl 3-[[3-[5-[2-[tert-butoxycarbonyl(methyl)amino]ethylamino]pyrazolo[1,5-a]pyrimidin-3-yl]-2-pyridyl]oxy]azetidine-1-carboxylate] the “AAK1:GAK pSENs Selectivity” value [1] was “A (A: ≤0.015)” and the IC50 [2] was greater than 1500 nM.

`CC(=O)N1CC(Oc2ncccc2-c2cnn3ccc(NCCN(C)C(=O)OC(C)(C)C)nc23)C1` [Compound I-63, Tert-butyl (2-((3-(2-((1-acetylazetidin-3-yl)oxy)pyridin-3-yl)pyrazolo[1,5-a]pyrimidin-5-yl)amino)ethyl)(methyl)carbamate] was tested, and the “AAK1:GAK pSENs Selectivity” value [1] was “A (A: ≤0.015)” and the IC50 [2] was greater than 1500 nM.

For `COC(=O)N1CC(Oc2ncccc2-c2cnn3ccc(NCCN(C)C(=O)OC(C)(C)C)nc23)C1` [Compound I-64], the “AAK1:GAK pSENs Selectivity” value [1] was “A (A: ≤0.015)” and the IC50 [2] was greater than 1500 nM.

With `COc1ncccc1-c1cnn2ccc(N3CCN(C(=O)O[C@H]4CO[C@H]5OCC[C@H]54)CC3)nc12` [Compound I-65, (3R,3aS,6aR)-hexahydrofuro[2,3-b]furan-3-yl 4-(3-(2-methoxypyridin-3-yl)pyrazolo[1,5-a]pyrimidin-5-yl)piperazine-1-carboxylate] the “AAK1:GAK pSENs Selectivity” value [1] was “A (A: ≤0.015)” and the IC50 [2] was greater than 1500 nM.

For `COc1ccccc1-c1cnn2ccc(N3CCN(C(=O)O[C@H]4CO[C@H]5OCC[C@H]54)CC3)nc12` [Compound I-69, (3R,3aS,6aR)-hexahydrofuro[2,3-b]furan-3-yl 4-(3-(2-methoxyphenyl)pyrazolo[1,5-a]pyrimidin-5-yl)piperazine-1-carboxylate], the “AAK1:GAK pSENs Selectivity” value [1] was “A (A: ≤0.015)” and the IC50 [2] was greater than 1500 nM.

For `[2H]C1([2H])N(C(=O)O[C@@H]2CNC(=O)C2)C([2H])([2H])C([2H])([2H])N(c2ccn3ncc(-c4cccnc4OC4CC4)c3n2)C1([2H])[2H]` [Compound I-72, [(3S)-5-oxopyrrolidin-3-yl]4-[3-[2-(cyclopropoxy)-3-pyridyl]pyrazolo[1,5-a]pyrimidin-5-yl]-2,2,3,3,5,5,6,6-octadeuterio-piperazine-1-carboxylate], the “AAK1:GAK pSENs Selectivity” value [1] was “A (A: ≤0.015)” and the IC50 [2] was greater than 1500 nM.

With `COC(=O)N1CC(Oc2ncccc2-c2cnn3ccc(N4CCN(C(=O)O[C@@H]5CC(=O)N(C)C5)CC4)nc23)C1` [Compound I-83, [(3R)-1-methyl-5-oxo-pyrrolidin-3-yl]4-[3-[2-(1-methoxycarbonylazetidin-3-yl)oxy-3-pyridyl]pyrazolo[1,5-a]pyrimidin-5-yl]piperazine-1-carboxylate] the “AAK1:GAK pSENs Selectivity” value [1] was “A (A: ≤0.015)” and the IC50 [2] was greater than 1500 nM.

In the case of `COC(=O)N1CC(Oc2ncccc2-c2cnn3ccc(N4CCN(C(=O)O[C@@H]5CC(=O)N(CCO)C5)CC4)nc23)C1` [Compound I-84, [(3R)-1-(2-hydroxyethyl)-5-oxo-pyrrolidin-3-yl]4-[3-[2-(1-methoxycarbonylazetidin-3-yl)oxy-3-pyridyl]pyrazolo[1,5-a]pyrimidin-5-yl]piperazine-1-carboxylate], the “AAK1:GAK pSENs Selectivity” value [1] is reported as “B (B: 0.016-0.075)” and the IC50 [2] is reported as greater than 1500 nM.

In the case of `CN1C[C@@H](OC(=O)N2CCN(c3ccn4ncc(-c5cc(F)cnc5OC5CC5)c4n3)CC2)CC1=O` [Compound I-86], the “AAK1:GAK pSENs Selectivity” value [1] is reported as “A (A: ≤0.015)” and the IC50 [2] is reported as greater than 1500 nM.

With `COCCN1C[C@@H](OC(=O)N2CCN(c3ccn4ncc(-c5cc(F)cnc5OC5CC5)c4n3)CC2)CC1=O` [Compound I-89] the “AAK1:GAK pSENs Selectivity” value [1] was “A (A: ≤0.015)” and the IC50 [2] was greater than 1500 nM.

With `CN1C[C@@H](OC(=O)N2CCN(c3nc4c(-c5cccnc5OC5CC5)cnn4cc3F)CC2)CC1=O` [Compound I-109, [(3S)-1-methyl-5-oxo-pyrrolidin-3-yl]4-[3-[2-(cyclopropoxy)-3-pyridyl]-6-fluoro-pyrazolo[1,5-a]pyrimidin-5-yl]piperazine-1-carboxylate] the “AAK1:GAK pSENs Selectivity” value [1] was “A (A: ≤0.015)” and the IC50 [2] was greater than 1500 nM.

With `[2H]C([2H])([2H])N1C[C@@H](OC(=O)N2CCN(c3ccn4ncc(-c5cccnc5OC5CC5)c4n3)CC2)CC1=O` [Compound I-113, [(3S)-5-oxo-1-(trideuteriomethyl)pyrrolidin-3-yl]4-[3-[2-(cyclopropoxy)-3-pyridyl]pyrazolo[1,5-a]pyrimidin-5-yl]piperazine-1-carboxylate] the “AAK1:GAK pSENs Selectivity” value [1] was “A (A: ≤0.015)” and the IC50 [2] was greater than 1500 nM.

In the case of `CC(C)N1C[C@@H](OC(=O)N2CCN(c3ccn4ncc(-c5cccnc5OC5CC5)c4n3)CC2)CC1=O` [Compound I-114, [(3S)-1-isopropyl-5-oxo-pyrrolidin-3-yl]-4-[3-[2-(cyclopropoxy)-3-pyridyl]pyrazolo[1,5-a]pyrimidin-5-yl]piperazine-1-carboxylate], the “AAK1:GAK pSENs Selectivity” value [1] is reported as “B (B: 0.016-0.075)” and the IC50 [2] is reported as greater than 1500 nM.

For `COCCN1C[C@@H](OC(=O)N2CCN(c3ccn4ncc(-c5cccnc5OC5CC5)c4n3)CC2)CC1=O` [Compound I-115, [(3S)-1-(2-methoxyethyl)-5-oxo-pyrrolidin-3-yl]-4-[3-[2-(cyclopropoxy)-3pyridyl]pyrazolo[1,5-a]pyrimidin-5-yl]piperazine-1-carboxylate], the “AAK1:GAK pSENs Selectivity” value [1] was “A (A: ≤0.015)” and the IC50 [2] was greater than 1500 nM.

Reference: patent publication US20250270222A1, “AP2 ASSOCIATED KINASE 1 INHIBITORS AND USES THEREOF” (Satellos Bioscience Inc., priority 2023, published 2025)
